The values below come from US9499550B2 (BRISTOL-MYERS SQUIBB COMPANY, priority 2012, dated 2016).

Test [1] relates to HCV genotype 1a (H77 strain) replicon in HUH-7 cells. Description: HCV replicon luciferase reporter assay, genotype 1a. To be noted: Hepatitis C virus, Huh-7, 72 h, HCV genotype 1a replicon luciferase assay, 3 days incubation, range class, read-out: LE_1a (EC50, range). The format is cell-based. The procedure, abridged: (§1)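 Replicon inhibition for both genotypes was measured as Renilla luciferase signal (EnduRen, 7.5 μM final, 2 h) after 3-day, 37° C exposure of replicon-bearing HUH-7 cells in 4% FCS DMEM, 0.5% DMSO. The 1b construct carries S1179I; the 1a H77 construct carries P1496L and S2204I. Twenty-point, 3-fold dilutions were fitted four-parametrically for EC50, and CC50 was taken from multiplexed Cell Titer-Blue.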
(In general: In antiviral work, replicon cells carry a viral genome segment that copies itself.)

For test [2], the system named is HCV genotype 1b (Con1) replicon in HUH-7 cells. Description: HCV replicon luciferase reporter assay, genotype 1b. Type of test: cell-based. To be noted: Hepatitis C virus, Huh-7, 72 h, HCV genotype 1b replicon luciferase assay, 3 days incubation, range class, read-out: LE_1b (EC50, range). The procedure, abridged: as §1

Broadly, the EC50 is the concentration needed to bring the measured effect to its halfway point. In the case of `CCOc1ccc2c(O[C@@H]3C[C@H]4C(=O)N[C@]5(C(=O)NS(=O)(=O)C6(C)CC6)C[C@H]5/C=C\CC[C@H](C)C[C@@H](C)[C@H](NC(=O)OC(C)(C)C(F)(F)F)C(=O)N4C3)ncc(OC)c2c1` [Compound 3139, 1,1,1-trifluoro-2-methylpropan-2-yl((2R,6S,7R,9S,13aS,14aR,16aS,Z)-2-((6-ethoxy-4-methoxyisoquinolin-1-yl)oxy)-7,9-dimethyl-14a-(((1-methylcyclopropyl)sulfonyl)carbamoyl)-5,16-dioxo-1,2,3,5,6,7,8,9,10,11,13a,14,14a,15,16,16a-hexadecahydrocyclopropa[e]pyrrolo[1,2-a][1,4]diazacyclopentadecin-6-yl)carbamate], the EC50 in test [1] and in test [2] was less than 5.46 nM in each case.

As for `CCOc1ccc2c(O[C@@H]3C[C@H]4C(=O)N[C@]5(C(=O)NS(=O)(=O)C6(C)CC6)C[C@H]5/C=C\CC[C@@H](C)C[C@@H](C)[C@H](NC(=O)OC(C)(C)C(F)(F)F)C(=O)N4C3)ncc(OC)c2c1` [Compound 3140, 1,1,1-trifluoro-2-methylpropan-2-yl((2R,6S,7R,9R,13aS,14aR,16aS,Z)-2-((6-ethoxy-4-methoxyisoquinolin-1-yl)oxy)-7,9-dimethyl-14a-(((1-methylcyclopropyl)sulfonyl)carbamoyl)-5,16-dioxo-1,2,3,5,6,7,8,9,10,11,13a,14,14a,15,16,16a-hexadecahydrocyclopropa[e]pyrrolo[1,2-a][1,4]diazacyclopentadecin-6-yl)carbamate], the EC50 in test [1] and in test [2] was less than 5.46 nM throughout.

For `COc1cnc(O[C@@H]2C[C@H]3C(=O)N[C@]4(C(=O)NS(=O)(=O)C5(CF)CC5)C[C@H]4/C=C\CC[C@H](C)C[C@@H](C)[C@H](NC(=O)OC(C)(C)C)C(=O)N3C2)c2ccc(N(C)C)cc12` [Compound 3141, tert-butyl ((2R,6S,7R,9S,13aS,14aR,16aS,Z)-2-((6-(dimethylamino)-4-methoxyisoquinolin-1-yl)oxy)-14a-(((1-(fluoromethyl)cyclopropyl)sulfonyl)carbamoyl)-7,9-dimethyl-5,16-dioxo-1,2,3,5,6,7,8,9,10,11,13a,14,14a,15,16,16a-hexadecahydrocyclopropa[e]pyrrolo[1,2-a][1,4]diazacyclopentadecin-6-yl)carbamate], the EC50 in test [1] and in test [2] was less than 5.46 nM each time.

With `COc1cnc(O[C@@H]2C[C@H]3C(=O)N[C@]4(C(=O)NS(=O)(=O)C5(CF)CC5)C[C@H]4/C=C\CC[C@@H](C)C[C@@H](C)[C@H](NC(=O)OC(C)(C)C)C(=O)N3C2)c2ccc(N(C)C)cc12` [Compound 3142, tert-butyl ((2R,6S,7R,9R,13aS,14aR,16aS,Z)-2-((6-(dimethylamino)-4-methoxyisoquinolin-1-yl)oxy)-14a-(((1-(fluoromethyl)cyclopropyl)sulfonyl)carbamoyl)-7,9-dimethyl-5,16-dioxo-1,2,3,5,6,7,8,9,10,11,13a,14,14a,15,16,16a-hexadecahydrocyclopropa[e]pyrrolo[1,2-a][1,4]diazacyclopentadecin-6-yl)carbamate], the concentration for a half-maximal effect (EC50) in test [1] and in test [2] was less than 5.46 nM each time.

In the case of `COc1cnc(O[C@@H]2C[C@H]3C(=O)N[C@]4(C(=O)NS(=O)(=O)C5(CF)CC5)C[C@H]4/C=C\CC[C@H](C)C[C@@H](C)[C@H](NC(=O)OC(C)(C)C(F)(F)F)C(=O)N3C2)c2ccc(N(C)C)cc12` [Compound 3143, 1,1,1-trifluoro-2-methylpropan-2-yl((2R,6S,7R,9S,13aS,14aR,16aS,Z)-2-((6-(dimethylamino)-4-methoxyisoquinolin-1-yl)oxy)-14a-(((1-(fluoromethyl)cyclopropyl)sulfonyl)carbamoyl)-7,9-dimethyl-5,16-dioxo-1,2,3,5,6,7,8,9,10,11,13a,14,14a,15,16,16a-hexadecahydrocyclopropa[e]pyrrolo[1,2-a][1,4]diazacyclopentadecin-6-yl)carbamate], the EC50 in test [1] and in test [2] was less than 5.46 nM throughout.

Regarding `COc1cnc(O[C@@H]2C[C@H]3C(=O)N[C@]4(C(=O)NS(=O)(=O)C5(CF)CC5)C[C@H]4/C=C\CC[C@@H](C)C[C@@H](C)[C@H](NC(=O)OC(C)(C)C(F)(F)F)C(=O)N3C2)c2ccc(N(C)C)cc12` [Compound 3144, 1,1,1-trifluoro-2-methylpropan-2-yl((2R,6S,7R,9R,13aS,14aR,16aS,Z)-2-((6-(dimethylamino)-4-methoxyisoquinolin-1-yl)oxy)-14a-(((1-(fluoromethyl)cyclopropyl)sulfonyl)carbamoyl)-7,9-dimethyl-5,16-dioxo-1,2,3,5,6,7,8,9,10,11,13a,14,14a,15,16,16a-hexadecahydrocyclopropa[e]pyrrolo[1,2-a][1,4]diazacyclopentadecin-6-yl)carbamate], the EC50 in test [1] and in test [2] was less than 5.46 nM in each case.

On to `COc1cnc(O[C@@H]2C[C@H]3C(=O)N[C@]4(C(=O)NS(=O)(=O)C5(CF)CC5)C[C@H]4/C=C\CC[C@H](C)C[C@@H](C)[C@H](NC(=O)OC(C)(C)C)C(=O)N3C2)c2ccc(F)cc12` [Compound 3145, tert-butyl ((2R,6S,7R,9S,13aS,14aR,16aS,Z)-2-((6-fluoro-4-methoxyisoquinolin-1-yl)oxy)-14a-(((1-(fluoromethyl)cyclopropyl)sulfonyl)carbamoyl)-7,9-dimethyl-5,16-dioxo-1,2,3,5,6,7,8,9,10,11,13a,14,14a,15,16,16a-hexadecahydrocyclopropa[e]pyrrolo[1,2-a][1,4]diazacyclopentadecin-6-yl)carbamate], for which the concentration giving a half-maximal response (EC50) in test [1] and in test [2] was 4.82 to 103 nM in each case.

On to `COc1cnc(O[C@@H]2C[C@H]3C(=O)N[C@]4(C(=O)NS(=O)(=O)C5(CF)CC5)C[C@H]4/C=C\CC[C@@H](C)C[C@@H](C)[C@H](NC(=O)OC(C)(C)C)C(=O)N3C2)c2ccc(F)cc12` [Compound 3146, tert-butyl ((2R,6S,7R,9R,13aS,14aR,16aS,Z)-2-((6-fluoro-4-methoxyisoquinolin-1-yl)oxy)-14a-(((1-(fluoromethyl)cyclopropyl)sulfonyl)carbamoyl)-7,9-dimethyl-5,16-dioxo-1,2,3,5,6,7,8,9,10,11,13a,14,14a,15,16,16a-hexadecahydrocyclopropa[e]pyrrolo[1,2-a][1,4]diazacyclopentadecin-6-yl)carbamate], for which the EC50 in test [1] and in test [2] was less than 5.46 nM throughout.

For `COc1ccc2c(O[C@@H]3C[C@H]4C(=O)N[C@]5(C(=O)NS(=O)(=O)C6CC6)C[C@H]5/C=C\CC[C@H](C)C[C@@H](C)[C@H](NC(=O)OC(C)(C)C)C(=O)N4C3)nccc2c1F` [Compound 3147, tert-butyl ((2R,6S,7R,9S,13aS,14aR,16aS,Z)-14a-((cyclopropylsulfonyl)carbamoyl)-2-((5-fluoro-6-methoxyisoquinolin-1-yl)oxy)-7,9-dimethyl-5,16-dioxo-1,2,3,5,6,7,8,9,10,11,13a,14,14a,15,16,16a-hexadecahydrocyclopropa[e]pyrrolo[1,2-a][1,4]diazacyclopentadecin-6-yl)carbamate], the values for the EC50 in test [1] and in test [2] were 4.82 to 103 nM and less than 5.46 nM, respectively.

As for `COc1ccc2c(O[C@@H]3C[C@H]4C(=O)N[C@]5(C(=O)NS(=O)(=O)C6CC6)C[C@H]5/C=C\CC[C@@H](C)C[C@@H](C)[C@H](NC(=O)OC(C)(C)C)C(=O)N4C3)nccc2c1F` [Compound 3148, tert-butyl ((2R,6S,7R,9R,13aS,14aR,16aS,Z)-14a-((cyclopropylsulfonyl)carbamoyl)-2-((5-fluoro-6-methoxyisoquinolin-1-yl)oxy)-7,9-dimethyl-5,16-dioxo-1,2,3,5,6,7,8,9,10,11,13a,14,14a,15,16,16a-hexadecahydrocyclopropa[e]pyrrolo[1,2-a][1,4]diazacyclopentadecin-6-yl)carbamate], the EC50 in test [1] and in test [2] was less than 5.46 nM throughout.

Regarding `COc1ccc2c(O[C@@H]3C[C@H]4C(=O)N[C@]5(C(=O)NS(=O)(=O)C6CC6)C[C@H]5/C=C\CC[C@H](C)C[C@@H](C)[C@H](NC(=O)OC(C)(C)C(F)(F)F)C(=O)N4C3)nccc2c1F` [Compound 3149, 1,1,1-trifluoro-2-methylpropan-2-yl((2R,6S,7R,9S,13aS,14aR,16aS,Z)-14a-((cyclopropylsulfonyl)carbamoyl)-2-((5-fluoro-6-methoxyisoquinolin-1-yl)oxy)-7,9-dimethyl-5,16-dioxo-1,2,3,5,6,7,8,9,10,11,13a,14,14a,15,16,16a-hexadecahydrocyclopropa[e]pyrrolo[1,2-a][1,4]diazacyclopentadecin-6-yl)carbamate], the concentration for a half-maximal effect (EC50) is 4.82 to 103 nM in test [1] and less than 5.46 nM in test [2].

On to `COc1ccc2c(O[C@@H]3C[C@H]4C(=O)N[C@]5(C(=O)NS(=O)(=O)C6CC6)C[C@H]5/C=C\CC[C@@H](C)C[C@@H](C)[C@H](NC(=O)OC(C)(C)C(F)(F)F)C(=O)N4C3)nccc2c1F` [Compound 3150, 1,1,1-trifluoro-2-methylpropan-2-yl((2R,6S,7R,9R,13aS,14aR,16aS,Z)-14a-((cyclopropylsulfonyl)carbamoyl)-2-((5-fluoro-6-methoxyisoquinolin-1-yl)oxy)-7,9-dimethyl-5,16-dioxo-1,2,3,5,6,7,8,9,10,11,13a,14,14a,15,16,16a-hexadecahydrocyclopropa[e]pyrrolo[1,2-a][1,4]diazacyclopentadecin-6-yl)carbamate], for which the half-maximal effective concentration (EC50) in test [1] and in test [2] was less than 5.46 nM each time.
